Reference: US20250154165A1, “MULTIANTENNARY GLYCOLIPID MIMETICS” (CONSEJO SUPERIOR DE INVESTIGACIONES CIENTÍFICAS (CSIC), priority 2021, published 2025)

Columns and labels:
[1] = tested on: Splenocytes treated with LPS; test: Suppression of LPS-induced inflammation (splenocytes in vitro); format: cell-based, mouse; settings: splenocytes treated concurrently with compound and LPS (FIG. 1)
Experimental: FIG. 1. […] Splenocytes were treated concurrently with the compounds of the invention and LPS to assess the suppressive function of compounds on LPS-induced inflammation, with several compounds showing prominent suppressive function.
The whole spleen was surgically removed from a mouse and mechanically dissociated into a single cell suspension of splenocytes, which were then cultured in the complete RPMI 1640 medium (cRPMI). Human peripheral blood mononuclear cells (PBMCs) from healthy volunteers were collected from whole blood through gradient-centrifugation with Histopaque-1077 (Sigma-Aldrich).
Splenocytes were treated concurrently with the compounds of the invention and LPS to assess the suppressive function of compounds on LPS-induced inflammation.

B6 mice = test: Adjuvancy function in vivo (serum IFNγ and IL-4 after injection)
Experimental: FIG. 11. […] The adjuvancy capability of the selected compounds 8, 12, 18, 27, and 29 in vivo was assessed by measuring the serum level of IFNγ and IL-4 induced after injecting them into B6 mice.
Besides assessing the ability of the new compounds to suppress inflammation, we also looked into their function to act as adjuvants, i.e. their ability to promote desirable immunological trends in the development of vaccines. We measured the in vivo adjuvancy capability of selected compounds 8, 12, 18, 27, and 29 in inducing IFNγ and IL-4 in B6 mice (FIG. 11).

[2] = tested on: LPS-induced inflammation in B6 mice; test: Suppression of LPS-induced inflammation in vivo; settings: injected twice in a half hour time after LPS-treatment (FIG. 3)
Experimental: FIG. 3. […] The in vivo capability of compound 12 in suppressing LPS-induced inflammation in B6 mice was assessed as indicated in the scheme.
To determine the anti-inflammatory function in vivo, we assessed the capability of compound 12 in suppressing LPS-induced inflammation in B6 mice.

[3] = tested on: OVA-induced AHR mouse model; test: Suppression of OVA-induced airway inflammation in vivo (IL-13 and IL-4 in BALF and lungs); settings: OVA-induced AHR experiment
Experimental: FIG. 8. […] The bronchoalveolar lavage fluid (BALF) from mice in the OAV-induced AHR experiment was examined forth IL-13 and IL-4 levels.
FIG. 9. […] The lungs from mice in the OAV-induced AHR experiment was examined for their IL-13 and IL-4 protein level.
FIG. 10. […] The lungs from mice in the OAV-induced AHR experiment was examined for their IL-13 and IL-4 mRNA levels.
For ovalbumin (OVA) challenge, mice were sensitized intraperitoneally (i.p.) with 50 μg of OVA with 2% alhydrogel adjuvant (InvivoGen). Mice were challenged three times with 50 μg of OVA on day 7 post-sensitization, either daily or every other day. Mice were sacrificed the day after the last OVA challenge. The scheme of the OT-1 adoptive transfer mouse model for examining the proliferation of CD8^+ T cells in adjuvanting OVA challenge is described in FIG. 13.
Upon exposure of the trachea, the lungs were lavaged twice with 1 mL of PBS supplemented with 2% fetal calf serum (FCS). BALF was pooled and bronchoalveolar (BAL) cells were pelleted by centrifugation and fixed onto cytospin slides. The slides were stained with Diff-Quik solution (Polysciences Inc) and BAL differential cell count was performed.
Using the Th2 OVA-induced AHR mouse model, we assessed the capability of selected compounds 8, 12, 18, and 27 in suppressing Th2 inflammation.

[4] = tested on: bone marrow-derived macrophages (BMDM) treated with LPS; test: Suppression of LPS-induced inflammation in bone marrow-derived macrophages (BMDM in vitro); format: cell-based; settings: BMDM (FIG. 2)
Description: Since macrophage is the major responder to LPS-induced inflammation, we assessed the capability of selected compounds to suppress LPS-induced inflammation in bone marrow-derived macrophages (BMDM).

[5] = tested on: splenocytes isolated from MyD88 KO mice; test: MyD88 dependency of cytokine induction (splenocytes from MyD88 KO mice in vitro); format: cell-based
Description: FIG. 14. […] The dependency of the compounds of the invention on functional MyD88 for biological function was examined using the representative compound 12, with immune cells isolated from MyD88 knocked-out mice. […] IL-4 was not detectable with compound 12 treatment, indicating a Th1-biased property.
To determine whether the adjuvancy function of the representative compound 12 is MyD88-dependent or not, we performed experiments with immune cells isolated from MyD88 knocked-out (KO) mice. […] Data are dose-dependent and differences become more pronounced at the higher concentrations. […] Taken together, the results support that compound 12 adjuvancy function is MyD88-dependent.

[6] = 2 hours after injection (FIG. 11)
[7] = 18 hours after injection (FIG. 11)
[8] = bronchoalveolar lavage fluid (FIG. 8)

With `CCCCCCCCCCCCNC(=O)C(COC1C(O)C(O)C(O)C2COC(=O)N21)NC(=O)CCCCCCCCCCC` (stereo not drawn) [Compound 12] the “suppressive function on LPS-induced inflammation” value [1] was “prominent inflammation-suppressing function”, the “serum level of IFNγ induced” value (B6 mice; [6]) was “significant capability in inducing” and the “serum level of IL-4 induced” value (B6 mice; [6]) was “significant capability in inducing”. For the same compound, the “serum level of IFNγ induced” value (B6 mice; [7]) was “significant detectable level”, the “serum level of IL-4 induced” value (B6 mice; [7]) was “significant detectable level” and the “level of IL-6 in sera” value [2] was “significantly suppressed”. The “level of TNFα in sera” value [2] was “significantly suppressed”, the “IL-4 level in BALF” value [3, 8] was “significantly suppressed” and the “IL-13 level in BALF” value [3, 8] was “significantly suppressed”. For the same compound, the “IL-4 mRNA level in lungs” value ([3]; lung mRNA (FIG. 10)) was “could significantly suppress”, the “IL-13 mRNA level in lungs” value ([3]; lung mRNA (FIG. 10)) was “significantly suppressed” and the “IL-4 protein level in lungs” value ([3]; lung protein (FIG. 9)) was “significantly suppressed”. The “IL-13 protein level in lungs” value ([3]; lung protein (FIG. 9)) was “significantly suppressed”, the “suppression of LPS-induced inflammation” value [4] was “particularly efficient in suppressing LPS-induced inflammation” and the “suppression of IL-6” value ([4]; LPS-induced) was “significant suppression”. The “suppression of TNFα” value ([4]; LPS-induced) was “significant suppression”, the “ability to induce IFNγ” value ([5]; splenocytes isolated from MyD88 KO mice (FIG. 14)) was “completely abrogated” and the IL-4 induction ([5]; splenocytes, MyD88 experiment (FIG. 14)) was “no IL-4 induction was observed”.
